{
  "source": "patent US8093218B2",
  "about": "“Peptide derived from vascular endothelial growth factor receptor-1 binding integrin α5β1 having proangiogenic activity” (Provincia Italiana della Congregazione dei Figli …, priority 2006, dated 2012)",
  "key": {"HUVEC [1]": {"test_system": "HUVEC", "assay": "adhesion of HUVEC on plates with covalently linked peptides", "assay_type": "cell-based, human", "conditions": "HUVEC incubated 1 hour on covalently linked peptide", "method": "To establish whether the four peptides, were able to inhibit the adhesion of the EC to VEGFR-1, by supporting directly the adhesion of the EC, the peptides were linked covalently to plates and the HUVEC were incubated on plates for 1 hour. The peptide 1 was used as negative control and the peptide RGD as the positive control. Unspecific adhesion was measured by absorbance in the plates covered with BSA."}, "rabbit corneal tissue": {"test_system": "rabbit corneal tissue", "assay": "rabbit corneal neovascularization with peptide-releasing pellets", "assay_type": "in vivo", "conditions": "rabbit cornea, monitored for 17 days", "source_text": "The FIGS. 6A and 6B show the effect on angiogenesis of the peptide 12 or Y220 compare to VEGF at different concentrations.\nTo address the angiogenic role, in vivo, pellets releasing peptide 12 were implanted into rabbit corneal tissue and neovascularization was monitored for 17 days."}, "integrin α5β1": {"biological_target": "integrin α5β1 (Homo sapiens, UniProt P05556+P08648)", "sequence (P08648 42-894 limits assumed)": "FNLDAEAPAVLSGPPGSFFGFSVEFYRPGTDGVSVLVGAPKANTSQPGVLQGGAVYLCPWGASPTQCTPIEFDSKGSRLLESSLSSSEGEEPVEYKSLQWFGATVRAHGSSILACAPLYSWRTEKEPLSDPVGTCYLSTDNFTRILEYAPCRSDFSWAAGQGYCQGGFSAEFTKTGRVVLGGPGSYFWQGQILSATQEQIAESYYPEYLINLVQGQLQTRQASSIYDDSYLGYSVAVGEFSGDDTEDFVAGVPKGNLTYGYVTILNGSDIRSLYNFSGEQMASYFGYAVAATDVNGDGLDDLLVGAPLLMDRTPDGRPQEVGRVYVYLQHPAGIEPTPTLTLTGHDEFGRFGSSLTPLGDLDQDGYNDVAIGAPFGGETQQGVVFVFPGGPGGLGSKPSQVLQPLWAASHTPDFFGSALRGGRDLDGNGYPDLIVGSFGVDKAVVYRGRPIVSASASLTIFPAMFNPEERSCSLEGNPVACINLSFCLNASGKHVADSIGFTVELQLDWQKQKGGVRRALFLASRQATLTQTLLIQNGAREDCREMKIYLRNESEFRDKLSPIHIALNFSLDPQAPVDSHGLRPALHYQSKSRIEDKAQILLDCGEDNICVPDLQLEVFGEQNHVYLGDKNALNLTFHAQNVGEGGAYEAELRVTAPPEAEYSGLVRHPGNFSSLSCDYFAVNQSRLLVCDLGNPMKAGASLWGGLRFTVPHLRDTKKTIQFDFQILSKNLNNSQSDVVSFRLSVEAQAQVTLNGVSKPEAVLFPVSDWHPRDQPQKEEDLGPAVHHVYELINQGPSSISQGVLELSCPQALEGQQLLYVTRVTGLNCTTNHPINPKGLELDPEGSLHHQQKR", "sequence (P08648 895-1049 partner limits assumed)": "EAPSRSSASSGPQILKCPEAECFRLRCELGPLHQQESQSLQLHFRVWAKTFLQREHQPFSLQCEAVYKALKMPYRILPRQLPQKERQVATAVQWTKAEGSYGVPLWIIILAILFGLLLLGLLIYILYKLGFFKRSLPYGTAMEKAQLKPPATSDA", "sequence (P05556 21-798)": "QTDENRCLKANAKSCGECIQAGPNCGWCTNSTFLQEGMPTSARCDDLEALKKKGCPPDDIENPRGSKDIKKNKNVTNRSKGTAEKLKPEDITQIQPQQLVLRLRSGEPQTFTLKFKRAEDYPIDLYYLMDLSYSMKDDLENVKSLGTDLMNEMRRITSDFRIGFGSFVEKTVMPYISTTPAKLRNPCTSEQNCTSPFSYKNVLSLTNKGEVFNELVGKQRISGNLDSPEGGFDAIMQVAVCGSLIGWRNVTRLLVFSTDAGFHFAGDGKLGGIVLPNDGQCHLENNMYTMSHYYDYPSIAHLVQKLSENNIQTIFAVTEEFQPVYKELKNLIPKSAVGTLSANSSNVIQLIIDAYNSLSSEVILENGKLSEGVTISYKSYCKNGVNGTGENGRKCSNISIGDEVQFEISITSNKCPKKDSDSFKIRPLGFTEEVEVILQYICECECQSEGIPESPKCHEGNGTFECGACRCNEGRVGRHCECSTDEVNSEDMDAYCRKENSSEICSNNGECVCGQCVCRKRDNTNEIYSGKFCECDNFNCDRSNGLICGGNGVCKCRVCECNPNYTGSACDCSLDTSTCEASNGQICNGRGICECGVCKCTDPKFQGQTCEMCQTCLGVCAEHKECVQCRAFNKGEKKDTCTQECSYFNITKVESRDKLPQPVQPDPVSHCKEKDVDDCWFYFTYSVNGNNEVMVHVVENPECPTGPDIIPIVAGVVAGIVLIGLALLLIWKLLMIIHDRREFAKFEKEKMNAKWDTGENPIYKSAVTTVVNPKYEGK", "assay": "integrin α5β1 aggregation around peptide-coated magnetic beads (immunostaining)", "assay_type": "cell-based", "design": "endogenous in cells; host or cells: HUVEC", "conditions": "magnetic beads coated with peptide, immunostaining for integrin α5β1", "method": "The integrins not linked are widely distributed on cellular membrane, but after the ligand binding and the activation merged in distinct structures called focal contacts and ECM contact.\nIt was examined whether the peptide 12 was able to induce aggregation of integrin α5β1 after the binding. EC adherent cells were incubated with magnetic beads coated with peptide 12, or peptide RGD or peptide RGE respectively as positive and negative controls, and immunostained with an antibody against integrin α5β1."}, "HUVEC [2]": {"test_system": "HUVEC", "assay": "formation of tubules of EC in Type I collagen gel", "assay_type": "cell-based, human", "method": "It was tested the ability of the peptide 12 to induce the formation of tubules of EC. HUVEC cells were plated on 24 wells plates previously covered with a mixture of gel Type I collagen, in the absence or presence of 500 μg/ml peptide 12 or peptide 1. A second layer of gel Type I collagen was placed on the adherent cells. As shown, in the absence or presence of peptides, were added, in the culture medium, different concentrations of VEGF (40 or 100 nM), or 20 μg/ml of protein VEGFR-1/Fc."}, "[3]": {"test_system": "HUVEC adhesion to peptide 12", "assay": "adhesion of HUVEC to peptide 12 in presence of chelating agents or anti-integrin antibodies", "assay_type": "cell-based, human", "conditions": "EDTA or EGTA treatment", "method": "The peptide 12 or the BSA, as non-specific adhesion control, were linked on plates and the HUVEC added in the presence of chelating agents (EDTA or EGTA).\nThe HUVEC were pre-incubated with an antibody against the integrin α5β1 or versus the integrinic subunit α6 and left to adhere on plates covered with peptide 12 or BSA."}, "[4]": {"test_system": "HUVEC migration induced by fibronectin (FN)", "assay": "EC migration in Boyden chambers induced by fibronectin", "assay_type": "cell-based, human", "conditions": "HUVEC pre-incubated with peptide", "method": "(§1) In order to investigate the ability to peptide 12 to influence the migration of the EC induced from VEGFR-1/Fc, a process mediated from the integrin α5β1, the HUVEC were pre-incubated with peptide 12 and peptide 1 and placed in Boyden chambers in order to analyze the migration induced from VEGFR-1/Fc or fibronectin (FN). Data represent the average of 14 microscopic fields and are referred to as percentage of inhibition compared to the migration observed in the absence of peptides."}, "[5]": {"test_system": "HUVEC migration induced from VEGFR-1/Fc", "assay": "EC migration in Boyden chambers induced by VEGFR-1/Fc", "assay_type": "cell-based, human", "conditions": "HUVEC pre-incubated with peptide", "method": "as §1"}, "[6]": {"test_system": "HUVEC adhesion to fibronectin (FN)", "assay": "inhibition by peptides of EC adhesion to fibronectin", "assay_type": "cell-based, human", "conditions": "peptide added to HUVEC suspension before plating", "method": "(§2) In order to test the ability of the twelve chosen peptides to inhibit the adhesion of the EC to VEGFR-1 mediated from the integrin α5β1, every peptide was added to one suspension of HUVEC before plated on dishes covered with VEGFR-1/Fc or fibronectin (FN). The data were indicated as percentage of adhesion, calculated to the number of cells adhered on the substrate itself in absence of peptides."}, "[7]": {"test_system": "HUVEC adhesion to VEGFR-1/Fc", "assay": "inhibition by peptides of EC adhesion to VEGFR-1/Fc", "assay_type": "cell-based, human", "conditions": "peptide added to HUVEC suspension before plating", "method": "as §2"}},
  "note": "Entries after “also recorded” stand apart in the source; their conditions may differ.",
  "data": [
    {"substance": "NYLTHRQ (listed as Homo sapiens) [peptide 12]", "values": [
      {"measurement": "direct support of EC adhesion by plate-linked peptide", "setting": "HUVEC [1]", "value": "induced the adhesion of EC; also recorded: directly supports the adhesion of EC"},
      {"measurement": "corneal neoangiogenesis", "setting": "rabbit corneal tissue", "value": "strongly promoted neoangiogenesis"},
      {"measurement": "integrin α5β1 aggregation / bead attachment on EC", "setting": "integrin α5β1", "value": "A separate colouring for integrin α5β1 was observed around the beads"},
      {"measurement": "effect on VEGF-induced tubule formation", "setting": "HUVEC [2]; 500 μg/ml peptide with VEGF 40 nM", "value": "increased the formation of induced VEGF tubules"},
      {"measurement": "induction of formation of tubules of EC", "setting": "HUVEC [2]; 500 μg/ml peptide, collagen I matrix", "value": "able to induce in vitro the formation of vascular structures"},
      {"measurement": "formation of vascular structures in presence of VEGFR-1/Fc", "setting": "HUVEC [2]; peptide in presence of VEGFR-1/Fc (data not shown)", "value": "partially maintained its ability to induce the formation of vascular structures"},
      {"measurement": "dependence of EC adhesion to peptide 12 on divalent cations", "setting": "[3]", "value": "requires divalent cations; also recorded: sensitive to divalent cations"},
      {"measurement": "inhibition of EC migration induced by fibronectin", "setting": "[4]", "value": "no significant inhibition"},
      {"measurement": "inhibition of EC migration induced by VEGFR-1/Fc", "setting": "[5]", "value": "completely annulled the migratory response; also recorded: inhibits the induced cellular migration from VEGFR-1"},
      {"measurement": "inhibition of adhesion of EC to fibronectin", "setting": "[6]", "value": "partially inhibit"},
      {"measurement": "inhibition of adhesion of EC to VEGFR-1/Fc", "setting": "[7]", "value": "effectively blocked; also recorded: inhibit cellular adhesion to sVEGFR-1"}
    ]}
  ]
}
